Assay results as given in patent publication US11773051B2, “S-enantiomers of beta-hydroxybutyrate and butanediol and methods for using same” (Buck Institute for Research on Aging, priority 2017, dated 2023).

Assays:
[1] = test system: T1, histone deacetylases (HDAC); test: in vitro HDAC assay, commercial assay kit Fluor de Lys Green from Enzo; assay type: biochemical; conditions: sodium salt
T1 construct: other: sodium salt; same assay as S-BHB
Method: (§1) The activity of S-BHB and R-BHB enantiomers in inhibiting histone deacetylases was tested.
(§2) This is an in vitro HDAC assay performed using the sodium salt of S-BHB and R-BHB with a commercial assay kit, Fluor de Lys Green from Enzo.
(§3) Without being bound to a particular theory, it is believed the R-BHB might be being metabolized more rapidly than the S-BHB resulting in the diminished maximum inhibition.

[2] = test system: histone deacetylases (HDAC); test: as above; assay type: biochemical; conditions: comparison with literature value
Method: as §1, §2, §3

| Compound | maximum inhibition of HDAC activity ([1]; same assay as S-BHB, partial inhibition) | potency for HDAC inhibition relative to potency of R-BHB in a different, previously published assay (Shimazu et al. 2013) [2] [fold] | inhibition of deacetylase activity (result in words) ([1]; FIG. 2) | IC50 ([1]; FIG. 2, read-out: HDAC activity inhibition IC50) [mM] |
| --- | --- | --- | --- | --- |
| C[C@@H](O)CC(=O)O [R-BHB, reference compound] | about 50% | – | – | – |
| C[C@H](O)CC(=O)O [S-BHB, S-beta-hydroxybutyrate] | – | ≤ 2 | dose-dependent inhibition | 7.3 |
